Measured values taken from article PMC6938488, “Nafamostat and sepimostat identified as novel neuroprotective agents via NR2B N-methyl-D-aspartate receptor antagonism using a rat retinal excitotoxicity model” (Scientific Reports, 2019).
Like-named read-outs stand apart in the source and are kept apart here.

Target: T1, NR2B subunit of NMDA receptor (Rattus norvegicus, UniProt Q00960)
T1 construct: gene Grin2b; native NMDA receptor in rat cerebral cortex membranes; with NR1
Assay type: binding

T1 sequence (Q00960 27-1482, other chains not shown): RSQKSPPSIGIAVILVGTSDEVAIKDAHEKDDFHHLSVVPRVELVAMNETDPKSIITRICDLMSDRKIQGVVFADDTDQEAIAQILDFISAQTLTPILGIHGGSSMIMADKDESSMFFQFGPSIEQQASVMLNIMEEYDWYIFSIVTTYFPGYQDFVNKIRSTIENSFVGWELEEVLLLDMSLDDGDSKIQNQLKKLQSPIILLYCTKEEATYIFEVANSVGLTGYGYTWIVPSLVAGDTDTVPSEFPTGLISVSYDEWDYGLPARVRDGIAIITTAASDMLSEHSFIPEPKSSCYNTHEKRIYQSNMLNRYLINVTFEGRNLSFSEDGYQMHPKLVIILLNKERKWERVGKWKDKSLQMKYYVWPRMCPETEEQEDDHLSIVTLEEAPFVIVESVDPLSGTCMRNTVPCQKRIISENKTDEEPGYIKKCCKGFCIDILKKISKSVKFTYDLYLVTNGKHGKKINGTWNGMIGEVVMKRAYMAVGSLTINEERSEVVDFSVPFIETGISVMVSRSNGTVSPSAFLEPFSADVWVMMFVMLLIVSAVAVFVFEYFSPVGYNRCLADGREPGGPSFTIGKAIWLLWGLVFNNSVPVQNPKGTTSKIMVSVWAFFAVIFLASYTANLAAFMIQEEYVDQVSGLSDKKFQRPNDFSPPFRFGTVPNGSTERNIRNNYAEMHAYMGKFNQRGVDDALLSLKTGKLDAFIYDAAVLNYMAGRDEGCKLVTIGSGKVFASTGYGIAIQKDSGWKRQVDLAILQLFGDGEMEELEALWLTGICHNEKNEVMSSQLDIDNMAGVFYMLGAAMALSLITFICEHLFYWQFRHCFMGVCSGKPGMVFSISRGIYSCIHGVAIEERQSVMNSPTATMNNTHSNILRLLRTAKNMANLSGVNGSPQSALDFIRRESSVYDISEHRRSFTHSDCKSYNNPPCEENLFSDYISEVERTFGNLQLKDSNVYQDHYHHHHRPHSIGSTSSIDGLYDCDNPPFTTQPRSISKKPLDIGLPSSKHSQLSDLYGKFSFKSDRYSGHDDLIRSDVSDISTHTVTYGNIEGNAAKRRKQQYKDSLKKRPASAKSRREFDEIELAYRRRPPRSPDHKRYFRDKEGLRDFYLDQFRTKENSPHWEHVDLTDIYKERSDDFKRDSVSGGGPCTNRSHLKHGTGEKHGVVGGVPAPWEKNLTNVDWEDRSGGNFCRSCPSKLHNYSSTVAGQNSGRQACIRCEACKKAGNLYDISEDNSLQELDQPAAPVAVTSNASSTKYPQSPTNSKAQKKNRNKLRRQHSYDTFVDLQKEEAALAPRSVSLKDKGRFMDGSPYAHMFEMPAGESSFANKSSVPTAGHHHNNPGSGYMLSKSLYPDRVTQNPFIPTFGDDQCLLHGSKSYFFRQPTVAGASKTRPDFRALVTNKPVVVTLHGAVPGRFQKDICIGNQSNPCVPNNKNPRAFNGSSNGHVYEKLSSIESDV

Structure (SMILES)	Ki (read-out: Ki)	Ki
N=C(N)c1ccc2cc(OC(=O)c3ccc(NC4=NCCN4)cc3)ccc2c1 [sepimostat, 6-amidino-2-naphthyl[4-(4,5-dihydro-1H-imidazol-2-yl)amino] benzoate dimethane sulfonate]	27.7 µM	–
N=C(N)c1ccc2cc(OC(=O)c3ccc(N=C(N)N)cc3)ccc2c1 [nafamostat]	–	4.2 µM
